Measured values: patent US20030228632A1, “Stable RXR expressing cell line” (Allergan Sales, Inc., priority 2000, published 2003)

Experiments:
Type in all cases: cell-based, Rat
[1] = test system: HircRXRα cells; experiment: Cell growth of HircRXRα cells, direct microscopic observation; conditions: 1 nM
Method: (§1) The effect on cell growth was evaluated by plating either a HircB cells (as a control) or HircRXRα cells in 6 well plates with 0.5×10^5 cells per well in 10% FBS/DMEM/F12. The next day, the medium was replaced with a specified concentration of agonist, antagonist or both or with 0.1% DMSO in 10% FBS/DMEM/F12. Analyses were performed in triplicate.
[…] Alternatively, cell growth was measured using the MTT assay using absorbance at 590 nm. Mosmann, T., et al., J Immunol. Meth. (1983) 65:55-62.

[2] = test system: HircRXRα cells; experiment: Cell counts of HircRXRα cells after agonist treatment (FIG. 5); conditions: 1 nM, four days of treatment
Method: as §1

[3] = test system: HircB cells; experiment: Cell counts of parental HircB cells after agonist treatment (FIG. 5); conditions: 1 nM, four days of treatment
Method: as §1

[4] = test system: HircRXRα cells; experiment: HircRXRα cell growth by MTT assay (FIGS. 6 and 7); conditions: five days of treatment, FIG. 6
Method: as §1
After incubation with agonist for 2 days, the change in cell number and morphology in the various HircRXRα cell samples were observed under the microscope. Alternatively, cell growth was measured using the MTT assay using absorbance at 590 nm. Mosmann, T., et al., J Immunol. Meth. (1983) 65:55-62.
FIGS. 6 and 7 show effects of RXRα ligands on HircRXRα cell growth as determined when cell growth was assessed by the MTT assay.

[5] = test system: phosphorylated MEK in HircB cells; experiment: Insulin stimulated phosphorylation of MEK in HircB cells (Western blot, FIG. 8); conditions: 100 nM insulin, 0-30 minutes
Method: (§2) They were then incubated for various periods in the presence of 100 nM insulin and then lysed. Solubilized cell proteins were subjected to SDS-PAGE and transferred to nitrocellulose and immunoblotted using antibodies specific to phosphorylated forms of MEK and MAP kinase.
(§3) FIGS. 8 and 9 show the results. […] In the left panel, the parental HircB cell line was tested for phosphorylated MEK in the solubilized protein at 0 minutes (lane 1), 5 minutes (lane 2), 15 minutes (lane 3) and 30 minutes (lane 4) after treatment with 100 nM insulin.

[6] = test system: phosphorylated MEK in HircRXRα cells; experiment: Insulin stimulated phosphorylation of MEK in HircRXRα cells (Western blot, FIG. 8); conditions: 100 nM insulin, 0-30 minutes
Method: as §2, §3

[7] = test system: phosphorylated MAP-kinase in HircB cells; experiment: Insulin stimulated phosphorylation of MAP kinase in HircB cells (Western blot, FIG. 9); conditions: 100 nM insulin, up to 90 minutes
Method: as §2
(§4) Similar results are shown in FIG. 9 with respect to the phosphorylation of MAP-kinase in response to insulin.

[8] = test system: phosphorylated MAP-kinase in HircRXRα cells; experiment: Insulin stimulated phosphorylation of MAP kinase in HircRXRα cells (Western blot, FIG. 9); conditions: 100 nM insulin, up to 90 minutes
Method: as §2, §4

| Compound | effect on cell growth (microscopic observation) ([1]; after four days) | effect on cell growth (microscopic observation) ([1]; after two days) | growth (cell counts) relative to no agonist [2] | effect on growth (cell counts) [3] | effect on cell growth (MTT assay) ([4]; 1 nM) | effect on cell growth (MTT assay) ([4]; 100 nM) | phosphorylated MEK after insulin treatment [5] | phosphorylated MEK after insulin treatment [6] | phosphorylated MAP-kinase after insulin treatment [7] | phosphorylated MAP-kinase after insulin treatment [8] |
| --- | --- | --- | --- | --- | --- | --- | --- | --- | --- | --- |
| CC(/C=C/[C@@H]1C[C@]1(C)c1ccc2c(c1)C(C)(C)CCC2(C)C)=C\C(=O)O [AGN 4204] | the reduction in growth was maintained | greatly reduced growth | approximately one-third | no demonstrable effect | significant reduction in growth | further reduction in growth | – | – | – | – |
| insulin: insulin used at 100 nM to stimulate MEK and MAP kinase phosphorylation | – | – | – | – | – | – | diminished considerably by 30 minutes | less reduced after 30 minutes than in the HircB cell line | virtually gone after 90 minutes | substantially maintained over the 90-minute period |
